Source: patent US20240217990A1 (Gilead Sciences, Inc., priority 2021, published 2024)

Tests used:
TLR7 = biological target: T1, TLR7 (Homo sapiens, UniProt Q9NYK1); assay: TLR7 human PBMC cell-based assay (antagonist, GS-986 stimulated cytokine release); conditions: human PBMCs; TLR7 agonist GS-986 400 nM, 6 hours; cytokines (IL-6 and IFNα) in supernatant; read-out: TLR-7 EC50
T1 construct: Human peripheral blood mononuclear cells (PBMCs) consist of lymphocytes, monocytes and dendritic cells that express TLR7, TLR8 and TLR9; endogenous in cells; host or cells: cryopreserved human PBMCs from healthy donors
T1 sequence (Q9NYK1 27-1049): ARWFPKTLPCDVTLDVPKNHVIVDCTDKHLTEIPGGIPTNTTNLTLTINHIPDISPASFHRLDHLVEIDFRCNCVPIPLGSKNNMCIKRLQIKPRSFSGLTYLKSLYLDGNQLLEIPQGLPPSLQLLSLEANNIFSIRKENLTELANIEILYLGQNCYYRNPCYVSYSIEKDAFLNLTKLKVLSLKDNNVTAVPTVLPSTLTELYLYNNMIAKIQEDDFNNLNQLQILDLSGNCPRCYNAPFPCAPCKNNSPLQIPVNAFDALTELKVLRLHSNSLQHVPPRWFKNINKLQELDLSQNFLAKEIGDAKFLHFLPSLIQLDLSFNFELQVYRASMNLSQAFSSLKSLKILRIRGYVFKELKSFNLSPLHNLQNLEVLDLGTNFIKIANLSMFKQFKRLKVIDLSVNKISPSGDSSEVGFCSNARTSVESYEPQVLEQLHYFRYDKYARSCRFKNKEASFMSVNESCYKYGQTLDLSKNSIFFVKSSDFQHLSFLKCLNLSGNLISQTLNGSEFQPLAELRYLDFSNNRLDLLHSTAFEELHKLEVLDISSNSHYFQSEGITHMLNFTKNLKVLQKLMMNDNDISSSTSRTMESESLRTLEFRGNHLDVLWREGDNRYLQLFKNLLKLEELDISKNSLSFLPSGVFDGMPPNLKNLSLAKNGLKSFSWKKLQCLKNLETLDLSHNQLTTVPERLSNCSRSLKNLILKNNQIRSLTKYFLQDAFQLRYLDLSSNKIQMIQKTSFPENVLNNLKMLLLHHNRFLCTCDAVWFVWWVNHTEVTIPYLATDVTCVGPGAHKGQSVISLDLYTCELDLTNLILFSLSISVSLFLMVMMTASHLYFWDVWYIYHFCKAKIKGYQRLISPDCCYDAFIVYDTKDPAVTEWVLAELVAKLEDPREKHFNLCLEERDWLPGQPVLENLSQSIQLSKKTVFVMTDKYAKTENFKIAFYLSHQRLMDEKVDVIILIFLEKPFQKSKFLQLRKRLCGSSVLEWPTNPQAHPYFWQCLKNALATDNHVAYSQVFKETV
Procedure, shortened: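 Cryopreserved healthy-donor PBMCs (100,000/well, RPMI-1640 + 10% FBS) pre-incubated 1 h at 37 °C with antagonist (10-point dose response, quadruplicate), then stimulated 6 h with GS-986 at 400 nM final. Supernatant IL-6 and IFNα measured by electrochemiluminescence immunoassay; EC50 from sigmoidal fit.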

TLR8 = biological target: T2, TLR8 (Homo sapiens, UniProt Q9NR97); assay: TLR8 human PBMC cell-based assay (antagonist, Compound A stimulated cytokine release); conditions: human PBMCs; TLR8 agonist Compound A 800 nM, 6 hours; cytokines (TNFa and IL 12p40) in supernatant; read-out: TLR-8 EC50
T2 construct: Human peripheral blood mononuclear cells (PBMCs) consist of lymphocytes, monocytes and dendritic cells that express TLR7, TLR8 and TLR9; endogenous in cells; host or cells: cryopreserved human PBMCs from healthy donors
T2 sequence (Q9NR97 27-1041): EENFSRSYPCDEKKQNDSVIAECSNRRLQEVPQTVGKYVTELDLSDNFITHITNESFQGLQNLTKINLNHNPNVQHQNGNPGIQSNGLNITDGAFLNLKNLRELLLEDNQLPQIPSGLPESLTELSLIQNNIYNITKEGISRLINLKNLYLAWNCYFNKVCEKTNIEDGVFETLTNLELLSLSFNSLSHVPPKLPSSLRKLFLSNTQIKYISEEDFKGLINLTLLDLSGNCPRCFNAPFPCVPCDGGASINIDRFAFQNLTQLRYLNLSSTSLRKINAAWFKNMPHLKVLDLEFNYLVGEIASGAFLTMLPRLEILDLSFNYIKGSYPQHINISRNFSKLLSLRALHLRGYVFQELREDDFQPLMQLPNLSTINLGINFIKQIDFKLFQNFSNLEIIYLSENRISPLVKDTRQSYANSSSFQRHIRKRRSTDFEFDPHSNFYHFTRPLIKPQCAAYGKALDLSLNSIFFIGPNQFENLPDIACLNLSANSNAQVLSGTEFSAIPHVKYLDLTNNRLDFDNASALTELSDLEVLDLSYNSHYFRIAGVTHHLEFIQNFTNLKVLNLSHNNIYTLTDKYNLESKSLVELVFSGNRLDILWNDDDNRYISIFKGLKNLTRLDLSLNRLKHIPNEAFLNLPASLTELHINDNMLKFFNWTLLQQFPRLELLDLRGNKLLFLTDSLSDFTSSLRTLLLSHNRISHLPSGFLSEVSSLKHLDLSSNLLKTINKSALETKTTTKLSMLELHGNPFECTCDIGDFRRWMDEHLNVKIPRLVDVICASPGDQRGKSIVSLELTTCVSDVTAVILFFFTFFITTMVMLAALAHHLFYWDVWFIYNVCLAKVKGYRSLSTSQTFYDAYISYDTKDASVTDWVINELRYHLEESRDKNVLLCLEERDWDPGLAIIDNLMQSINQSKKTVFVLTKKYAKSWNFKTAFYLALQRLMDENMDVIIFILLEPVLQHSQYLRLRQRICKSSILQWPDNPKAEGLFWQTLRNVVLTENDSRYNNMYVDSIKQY
Procedure, shortened: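 Cryopreserved donor PBMCs (100,000/well, RPMI + 10% FBS) were preincubated 1 h with antagonist (10-point dose response, quadruplicate), then stimulated with Compound A (800 nM final) for 6 h at 37 °C. TNFa and IL-12p40 in supernatants were measured by electrochemiluminescence; sigmoidal fits gave EC50.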

EC50 (TLR7) [nM]	EC50 (TLR8) [nM]	SMILES
0.3	25.8	Cc1cc(-c2[nH]c3cc(C(=O)N4C[C@@H](N)CC[C@H]4C)sc3c2C(C)C)cn2ncnc12 [Example 96]
0.2	1.8	Cc1cc(-c2[nH]c3cc(C4CCC(N5CCC(F)C5)CC4)sc3c2C(C)C)cn2ncnc12 (stereo not drawn) [Example 256, 2-(4-(3-fluoropyrrolidin-1-yl)cyclohexyl)-6-isopropyl-5-(8-methyl-[1,2,4]triazolo[1,5-a]pyridin-6-yl)-4H-thieno[3,2-b]pyrrole]
7.5	8.5	Cc1cc(-c2[nH]c3cc(C(=O)N(C)C4CCC(N5CC6(COC6)C5)CC4)sc3c2C(C)C)cn2ncnc12 (stereo not drawn) [Example 253]
209	47.8	Cc1cc(-c2[nH]c3cc(C(=O)N4CCNCC4c4ccc(C(F)(F)F)cc4)sc3c2C(C)C)cn2ncnc12 (stereo not drawn) [Example 117]
2.7	2.8	Cc1cc(-c2[nH]c3cc(-c4nnc(C5CCN(CC(N)=O)CC5)s4)sc3c2C(C)C)cn2ncnc12 [Example 168]
20.9	61.4	Cc1cc(-c2[nH]c3cc(-c4ccc(N5CCNCC5)nc4)sc3c2C(C)C)cc(C)n1 [Example 51, 5-(2,6-dimethyl-4-pyridyl)-6-isopropyl-2-(6-piperazin-1-yl-3-pyridyl)-4F1-thieno[3,2-b]pyrrole]
146	72	CCc1c(-c2cc(C)c3ncnn3c2)[nH]c2cc(-c3nc4ccc(N5CCN(CC(N)=O)CC5)cc4[nH]3)sc12 [Example 169]
1.1	1.3	Cc1c(-c2[nH]c3cc(-c4cnn(C5CCNCC5)c4)sc3c2C(C)C)cn2ncnc2c1C [Example 229]
0.37	6.11	Cc1cc(-c2[nH]c3cc(C4CCN(C(=O)[C@@H]5COCCN5)CC4)sc3c2C(C)C)cn2ncnc12 [Example 291]
1.3	17.4	Cc1cc(-c2[nH]c3cc(C(=O)N(C)C4CCN(CC(N)=O)CC4)sc3c2C(C)C)cn2ncnc12 [Example 178]
0.5	1.7	Cc1cc(-c2[nH]c3cc(C(=O)N4C[C@H](C)NC[C@H]4C)sc3c2C(C)C)cn2ncnc12 [Example 124]
1.5	2.8	Cc1cc(-c2[nH]c3cc(C4CCN(CC(N)=O)CC4)sc3c2C(C)C)cn2ncnc12 [Example 164, 2-[4-[6-isopropyl-5-(8-methyl-[1,2,4]triazolo[1,5-a]pyridin-6-yl)-4H-thieno[3,2-b]pyrrol-2-yl]-1-piperidyl]acetamide]
0.56	10.4	Cc1cc(-c2[nH]c3cc(C4CC5CCC(C4)N5CC(N)=O)sc3c2C(C)C)cn2ncnc12 (stereo not drawn) [Example 299]
1.8	5.4	Cc1cc(-c2[nH]c3cc(C(=O)N4CCNCC4)sc3c2C(C)C)cn2nnnc12 [Example 65]
0.23	14.2	Cc1cc(-c2[nH]c3cc(C4CCC5(CC4)CN(C(=O)[C@H]4COCCN4)C5)sc3c2C(C)C)cn2ncnc12 [Example 284]
0.6	3.6	Cc1cc(-c2[nH]c3cc(C4CCNCC4)sc3c2C(C)C)cn2ncnc12 [Example 154, 6-isopropyl-5-(8-methyl-[1,2,4]triazolo[1,5-a]pyridin-6-yl)-2-(piperidin-4-yl)-4H-thieno[3,2-b]pyrrole]
19	27.2	Cc1cc(-c2[nH]c3cc(C(=O)N4CC[C@@H](CN)C4)sc3c2C(C)C)cn2ncnc12 [Example 146]
40.6	68	Cc1cc(-c2[nH]c3cc(C(=O)N4CCC5CC5(N)C4)sc3c2C(C)C)cc(C)n1 (stereo not drawn) [Example 31]
> 1000	654	Cc1cc(-c2[nH]c3cc(C(=O)N[C@@H]4CCNC4)sc3c2C(C)C)cc(C)n1 [Example 5]
6.5	22.2	Cc1cc(-c2[nH]c3cc(C(=O)N4CCC5(CCN(CC(N)=O)CC5)C4)sc3c2C(C)C)cn2ncnc12 [Example 176]
1	4.7	Cc1cc(-c2[nH]c3cc(C(=O)N(C)CCCN(C)C)sc3c2C(C)C)cn2ncnc12 [Example 94]
